What was measured:
Assay in all cases: relative viability (nuclei count vs DMSO), 5 days (fraction); higher = more cells survive
[1] = compound: NC(=O)[C@@H](CCC(F)(F)F)N(Cc1ccc(-c2ncon2)cc1F)S(=O)(=O)c1ccc(Cl)cc1 [Avagacestat] + O=C(c1cc(Cc2n[nH]c(=O)c3ccccc23)ccc1F)N1CCN(C(=O)C2CC2)CC1 [Olaparib] (partner 8 µM)
Summary of the method: (§1)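 Relative viability was taken as the ratio of nuclei in treated wells to nuclei in vehicle wells. Lung cancer cell lines in 1536-well plates received compounds by pin tool one day after seeding, either one drug alone or a fixed anchor-drug dose plus five library-drug doses (not always all listed) in √10 steps. Nuclei were counted on 4× images after 5 days of treatment, and values are medians of duplicate plates.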

[2] = compound: NC(=O)[C@@H](CCC(F)(F)F)N(Cc1ccc(-c2ncon2)cc1F)S(=O)(=O)c1ccc(Cl)cc1 [Avagacestat] + Nc1nc2[nH]cc(CCc3ccc(C(=O)N[C@@H](CCC(=O)O)C(=O)O)cc3)c2c(=O)[nH]1 [Pemetrexed] (partner 0.2 µM)
Summary of the method: as §1

[3] = compound: NC(=O)[C@@H](CCC(F)(F)F)N(Cc1ccc(-c2ncon2)cc1F)S(=O)(=O)c1ccc(Cl)cc1 [Avagacestat] + O=C(CCCCCCC(=O)Nc1ccccc1)NO [Vorinostat] (partner 1 µM)
Summary of the method: as §1

[4] = compound: NC(=O)[C@@H](CCC(F)(F)F)N(Cc1ccc(-c2ncon2)cc1F)S(=O)(=O)c1ccc(Cl)cc1 [Avagacestat] + C[C@]1(O)C[C@@H](c2nc(-c3ccc4ccc(-c5ccccc5)nc4c3)c3c(N)nccn32)C1 [Linsitinib] (partner 1 µM)
Summary of the method: as §1

With NCI-H2009 the relative viability ([1]; first compound 0.08 µM) was 0.718, the relative viability ([1]; first compound 0.253 µM) was 0.73 and the relative viability ([1]; first compound 0.8 µM) was 0.779. It also gave a relative viability ([1]; first compound 2.53 µM) of 0.667, a relative viability ([1]; first compound 8 µM) of 0.66 and a relative viability ([2]; first compound 0.08 µM) of 1.16. It also gave a relative viability ([2]; first compound 0.253 µM) of 1.15, a relative viability ([2]; first compound 0.8 µM) of 1.11 and a relative viability ([2]; first compound 2.53 µM) of 1.02. For the same cell line, the relative viability ([2]; first compound 8 µM) was 0.975, the relative viability ([3]; first compound 0.08 µM) was 0.704 and the relative viability ([3]; first compound 0.253 µM) was 0.876. It also gave a relative viability ([3]; first compound 0.8 µM) of 0.733, a relative viability ([3]; first compound 2.53 µM) of 0.722 and a relative viability ([3]; first compound 8 µM) of 0.694. The relative viability ([4]; first compound 0.08 µM) was 1.26, the relative viability ([4]; first compound 0.253 µM) was 1.34 and the relative viability ([4]; first compound 0.8 µM) was 1.2. For the same cell line, the relative viability ([4]; first compound 2.53 µM) was 1.22 and the relative viability ([4]; first compound 8 µM) was 1.1.
In the case of NCI-H2023, the relative viability ([1]; first compound 0.08 µM) is reported as 0.751, the relative viability ([1]; first compound 0.253 µM) is reported as 0.52 and the relative viability ([1]; first compound 0.8 µM) is reported as 0.479. For the same cell line, the relative viability ([1]; first compound 2.53 µM) was 0.493, the relative viability ([1]; first compound 8 µM) was 0.475 and the relative viability ([2]; first compound 0.08 µM) was 0.322. The relative viability ([2]; first compound 0.253 µM) was 0.221, the relative viability ([2]; first compound 0.8 µM) was 0.302 and the relative viability ([2]; first compound 2.53 µM) was 0.257. For the same cell line, the relative viability ([2]; first compound 8 µM) was 0.221, the relative viability ([3]; first compound 0.08 µM) was 0.625 and the relative viability ([3]; first compound 0.253 µM) was 0.554. It also gave a relative viability ([3]; first compound 0.8 µM) of 0.617, a relative viability ([3]; first compound 2.53 µM) of 0.471 and a relative viability ([3]; first compound 8 µM) of 0.6. The relative viability ([4]; first compound 0.08 µM) was 0.789, the relative viability ([4]; first compound 0.253 µM) was 0.784 and the relative viability ([4]; first compound 0.8 µM) was 0.628. It also gave a relative viability ([4]; first compound 2.53 µM) of 0.606 and a relative viability ([4]; first compound 8 µM) of 0.47.
Cell Line NCI-H2085 has a relative viability ([1]; first compound 0.08 µM) of 0.823, a relative viability ([1]; first compound 0.253 µM) of 0.833 and a relative viability ([1]; first compound 0.8 µM) of 0.847. It also gave a relative viability ([1]; first compound 2.53 µM) of 0.825, a relative viability ([1]; first compound 8 µM) of 0.8 and a relative viability ([2]; first compound 0.08 µM) of 0.856. For the same cell line, the relative viability ([2]; first compound 0.253 µM) was 0.871, the relative viability ([2]; first compound 0.8 µM) was 1.04 and the relative viability ([2]; first compound 2.53 µM) was 0.902. It also gave a relative viability ([2]; first compound 8 µM) of 0.861, a relative viability ([3]; first compound 0.08 µM) of 0.815 and a relative viability ([3]; first compound 0.253 µM) of 0.855. It also gave a relative viability ([3]; first compound 0.8 µM) of 0.807, a relative viability ([3]; first compound 2.53 µM) of 0.758 and a relative viability ([3]; first compound 8 µM) of 0.882. The relative viability ([4]; first compound 0.08 µM) was 0.913, the relative viability ([4]; first compound 0.253 µM) was 0.967 and the relative viability ([4]; first compound 0.8 µM) was 1.08. For the same cell line, the relative viability ([4]; first compound 2.53 µM) was 0.922 and the relative viability ([4]; first compound 8 µM) was 0.84.
NCI-H2087 gave a relative viability ([1]; first compound 0.08 µM) of 0.806, a relative viability ([1]; first compound 0.253 µM) of 0.613 and a relative viability ([1]; first compound 0.8 µM) of 0.884. It also gave a relative viability ([1]; first compound 2.53 µM) of 0.62, a relative viability ([1]; first compound 8 µM) of 0.543 and a relative viability ([2]; first compound 0.08 µM) of 0.658. It also gave a relative viability ([2]; first compound 0.253 µM) of 0.651, a relative viability ([2]; first compound 0.8 µM) of 0.741 and a relative viability ([2]; first compound 2.53 µM) of 0.632. It also gave a relative viability ([2]; first compound 8 µM) of 0.662, a relative viability ([3]; first compound 0.08 µM) of 1.14 and a relative viability ([3]; first compound 0.253 µM) of 0.914. The relative viability ([3]; first compound 0.8 µM) was 1.07, the relative viability ([3]; first compound 2.53 µM) was 0.771 and the relative viability ([3]; first compound 8 µM) was 0.68. The relative viability ([4]; first compound 0.08 µM) was 1.2, the relative viability ([4]; first compound 0.253 µM) was 1.2 and the relative viability ([4]; first compound 0.8 µM) was 1.03. The relative viability ([4]; first compound 2.53 µM) was 1.2 and the relative viability ([4]; first compound 8 µM) was 1.02.
With NCI-H2126 the relative viability ([1]; first compound 0.08 µM) was 0.921, the relative viability ([1]; first compound 0.253 µM) was 0.941 and the relative viability ([1]; first compound 0.8 µM) was 0.931. For the same cell line, the relative viability ([1]; first compound 2.53 µM) was 1.03, the relative viability ([1]; first compound 8 µM) was 0.873 and the relative viability ([2]; first compound 0.08 µM) was 0.67. It also gave a relative viability ([2]; first compound 0.253 µM) of 0.687, a relative viability ([2]; first compound 0.8 µM) of 0.698 and a relative viability ([2]; first compound 2.53 µM) of 0.605. It also gave a relative viability ([2]; first compound 8 µM) of 0.683, a relative viability ([3]; first compound 0.08 µM) of 0.792 and a relative viability ([3]; first compound 0.253 µM) of 0.715. For the same cell line, the relative viability ([3]; first compound 0.8 µM) was 0.842, the relative viability ([3]; first compound 2.53 µM) was 0.711 and the relative viability ([3]; first compound 8 µM) was 0.753. The relative viability ([4]; first compound 0.08 µM) was 0.757, the relative viability ([4]; first compound 0.253 µM) was 0.705 and the relative viability ([4]; first compound 0.8 µM) was 0.696. For the same cell line, the relative viability ([4]; first compound 2.53 µM) was 0.706 and the relative viability ([4]; first compound 8 µM) was 0.67.
NCI-H2228 gave a relative viability ([1]; first compound 0.08 µM) of 0.642, a relative viability ([1]; first compound 0.253 µM) of 0.862 and a relative viability ([1]; first compound 0.8 µM) of 0.8. It also gave a relative viability ([1]; first compound 2.53 µM) of 0.658, a relative viability ([1]; first compound 8 µM) of 0.59 and a relative viability ([2]; first compound 0.08 µM) of 0.364. It also gave a relative viability ([2]; first compound 0.253 µM) of 0.35, a relative viability ([2]; first compound 0.8 µM) of 0.346 and a relative viability ([2]; first compound 2.53 µM) of 0.301. For the same cell line, the relative viability ([2]; first compound 8 µM) was 0.302, the relative viability ([3]; first compound 0.08 µM) was 0.752 and the relative viability ([3]; first compound 0.253 µM) was 0.787. For the same cell line, the relative viability ([3]; first compound 0.8 µM) was 0.569, the relative viability ([3]; first compound 2.53 µM) was 0.641 and the relative viability ([3]; first compound 8 µM) was 0.511. For the same cell line, the relative viability ([4]; first compound 0.08 µM) was 1.04, the relative viability ([4]; first compound 0.253 µM) was 0.765 and the relative viability ([4]; first compound 0.8 µM) was 0.786. It also gave a relative viability ([4]; first compound 2.53 µM) of 0.62 and a relative viability ([4]; first compound 8 µM) of 0.534.
Work on NCI-H2347 yielded a relative viability ([1]; first compound 0.08 µM) of 0.611, a relative viability ([1]; first compound 0.253 µM) of 0.589 and a relative viability ([1]; first compound 0.8 µM) of 0.601. For the same cell line, the relative viability ([1]; first compound 2.53 µM) was 0.548, the relative viability ([1]; first compound 8 µM) was 0.554 and the relative viability ([2]; first compound 0.08 µM) was 0.426. For the same cell line, the relative viability ([2]; first compound 0.253 µM) was 0.454, the relative viability ([2]; first compound 0.8 µM) was 0.447 and the relative viability ([2]; first compound 2.53 µM) was 0.465. It also gave a relative viability ([2]; first compound 8 µM) of 0.406, a relative viability ([3]; first compound 0.08 µM) of 0.599 and a relative viability ([3]; first compound 0.253 µM) of 0.646. The relative viability ([3]; first compound 0.8 µM) was 0.78, the relative viability ([3]; first compound 2.53 µM) was 0.499 and the relative viability ([3]; first compound 8 µM) was 0.522. The relative viability ([4]; first compound 0.08 µM) was 1.04, the relative viability ([4]; first compound 0.253 µM) was 0.989 and the relative viability ([4]; first compound 0.8 µM) was 1.02. It also gave a relative viability ([4]; first compound 2.53 µM) of 0.943 and a relative viability ([4]; first compound 8 µM) of 0.897.
Cell Line NCI-H2405 has a relative viability ([1]; first compound 0.08 µM) of 0.976, a relative viability ([1]; first compound 0.253 µM) of 0.911 and a relative viability ([1]; first compound 0.8 µM) of 0.978. The relative viability ([1]; first compound 2.53 µM) was 0.778, the relative viability ([1]; first compound 8 µM) was 0.826 and the relative viability ([2]; first compound 0.08 µM) was 1.15. It also gave a relative viability ([2]; first compound 0.253 µM) of 1.17, a relative viability ([2]; first compound 0.8 µM) of 1.12 and a relative viability ([2]; first compound 2.53 µM) of 1.01. For the same cell line, the relative viability ([2]; first compound 8 µM) was 1.03, the relative viability ([3]; first compound 0.08 µM) was 1.04 and the relative viability ([3]; first compound 0.253 µM) was 1.1. For the same cell line, the relative viability ([3]; first compound 0.8 µM) was 1.12, the relative viability ([3]; first compound 2.53 µM) was 0.943 and the relative viability ([3]; first compound 8 µM) was 0.933. It also gave a relative viability ([4]; first compound 0.08 µM) of 0.873, a relative viability ([4]; first compound 0.253 µM) of 0.852 and a relative viability ([4]; first compound 0.8 µM) of 1. For the same cell line, the relative viability ([4]; first compound 2.53 µM) was 0.627 and the relative viability ([4]; first compound 8 µM) was 0.737.

From the supplement of paper PMC10307832
